In one assay the target is T1, GATA2 (Homo sapiens, UniProt P23769).
T1 construct: we tried to synthesize their full-length proteins using the cell-free system; made in house; host or cells: wheat cell-free protein synthesis system (WEPRO1240 kit)
T1 sequence (P23769 1-480): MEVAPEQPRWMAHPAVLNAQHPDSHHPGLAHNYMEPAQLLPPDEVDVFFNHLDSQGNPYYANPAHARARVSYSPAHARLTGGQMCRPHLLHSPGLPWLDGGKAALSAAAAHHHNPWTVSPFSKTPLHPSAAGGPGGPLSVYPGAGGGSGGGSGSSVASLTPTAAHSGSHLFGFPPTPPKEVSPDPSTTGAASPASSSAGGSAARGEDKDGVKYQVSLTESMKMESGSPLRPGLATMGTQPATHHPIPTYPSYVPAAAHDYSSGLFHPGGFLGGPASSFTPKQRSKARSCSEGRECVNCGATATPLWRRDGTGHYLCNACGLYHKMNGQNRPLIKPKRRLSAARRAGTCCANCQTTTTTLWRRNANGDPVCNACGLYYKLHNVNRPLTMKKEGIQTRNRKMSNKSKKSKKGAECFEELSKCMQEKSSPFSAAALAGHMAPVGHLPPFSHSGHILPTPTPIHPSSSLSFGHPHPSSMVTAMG
Put plainly: AlphaScreen DNA-binding assay, GATA2. Particulars: pyrrothiogatain 0 to 200 µM. As to the method: For the protein-DNA binding assay on a 384-well AlphaPlate (Perkin Elmer), 10 μL of bait protein mixture containing 1 µL FLAG-tagged protein in AlphaScreen Buffer (100 mM Tris-HCl (pH 8.0), 150 mM NaCl, 0.1% Tween 20, and 1 mg/mL BSA) and 5 µL biotinylated oligonucleotide (0–10 µM final concentration) in AlphaScreen Buffer were dispended into the AlphaPlate. Then, the plate was incubated at 26 °C for 1 h. After incubation, 10 μL of the detection mixture containing 0.4 µg/mL Anti-DYKDDDDK antibody (1E6, Wako), 0.1 μL streptavidin-conjugated AlphaScreen donor beads, and 0.1 μL protein A-conjugated AlphaScreen acceptor beads in AlphaScreen Buffer was mixed and incubated at 26 °C for 1 h, and then, the AlphaScreen signal was detected using an EnVision device with the AlphaScreen signal detection program (PerkinElmer).
For the AlphaScreen-based chemical library screening, we used a diverse set of 9,600 synthesized chemicals established by the Drug Discovery Initiative (The University of Tokyo, Tokyo, Japan). All chemical compounds (10 mM) were dissolved in DMSO, and were pre-dispensed into a 384-well Alphaplate (250 nL/well). […] The AlphaScreen signal was detected using an EnVision device with the AlphaScreen signal detection program (PerkinElmer). […]

Another assay has as its system Th2 cell differentiation. As to the kind of experiment: Intracellular cytokine staining, total CD4+ T cells under IL-2 conditions. Conditions: 30 µM, five days. It is filed as cell-based, mouse. As for the experimental part:
C57BL/6 mice were purchased from Clea (Clea Japan, Inc., Tokyo, Japan). Total CD4^+ T cells isolated from mouse spleen were prepared using a FITC anti-mouse CD4 antibody (Cat#100510, RM4–5, BioLegend) and anti-FITC-microbeads (Cat#130-097-050, Miltenyi Biotec). Naive CD4^+ T cells (CD44^low, CD62L^high) were prepared using a MojoSort Mouse CD4 T cell Isolation Kit (Cat#480033), BioLegend). Biotinylated anti-CD44 (Cat#103004, IM7) and anti-CD25 antibodies (Cat#102004, PC61) were purchased from BioLegend. CD4^+ T cells (7.5 × 10^5) were stimulated using immobilized anti-TCR-β mAb (3 µg/mL, H57–597, BioLegend) plus an anti-CD28 mAb (1.0 µg/mL, cat#40–0281, TONBO Biosciences) for 2 days, and then, the cells were further expanded under similar conditions for an additional 3 days. IL-2 conditions: IL-2 (10 ng/mL, Pepro Tech); Th2 conditions: IL-2 (10 ng/mL, Pepro Tech), IL-4 (1 ng/mL, Pepro Tech), and anti-IFN-γ mAb (2.5 µg/mL, cat#40–731, TONBO Biosciences). […]
The in vitro differentiated CD4^+ T cells were stimulated using an immobilized anti-TCR-β mAb (3 µg/ml, H57–597, BioLegend) for 6 h in the presence of monensin (2 µM). […] Flow cytometry was performed using a Gallios Flow Cytometer instrument (Beckman Coulter) and a FACS Caliber instrument (BD Biosciences) and the results were analysed using the FlowJo software program (Tree Star, Ashland, OR, USA). […]

Molecules are shown by their SMILES. Where “and” joins values, the source holds several entries; their conditions need not be identical. Equal values may be shown once.

In the case of `Cc1ccc(C)n1-c1ccsc1C(=O)O` [Pyrrothiogatain, 3-(2,5-dimethyl-1H-pyrrol-1-yl)thiophene-2-carboxylic acid], the half-inhibitory concentration (IC50) at GATA2 was ~50 µM and 45 µM. Moreover, in the assay with Th2 cell differentiation, the “Generation of IL-4-, IL-5-, and IL-13-producing cells” value was “repressed”; the “Number of Th1 cells producing IFN-γ” value is “increased”.

These data come from article PMC6874683, “Pyrrothiogatain acts as an inhibitor of GATA family proteins and inhibits Th2 cell differentiation in vitro” (Scientific Reports, 2019).
